Test results published in publication PMC10248530, “Screening the Thermotoga maritima genome for new wide-spectrum nucleoside and nucleotide kinases” (The Journal of Biological Chemistry, 2023).

Key:
Format in all cases: biochemical
Tm(d)CMPK = target: T1, Tm(d)CMPK (Thermotoga maritima, UniProt Q9X1F6); assay: TLC or HPLC, […] h cascade; conditions: 1 mM NMP, 1.2 mM ATP, 5 mM acetyl phosphate with TmAcK (ATP regeneration), 10 mM MgCl2, pH 7.6, 37 °C
T1 construct: gene cmk; synthetic gene, full length, expressed in E. coli, 80 °C heat step and Ni-NTA; tag not described
T1 sequence (Q9X1F6 1-220): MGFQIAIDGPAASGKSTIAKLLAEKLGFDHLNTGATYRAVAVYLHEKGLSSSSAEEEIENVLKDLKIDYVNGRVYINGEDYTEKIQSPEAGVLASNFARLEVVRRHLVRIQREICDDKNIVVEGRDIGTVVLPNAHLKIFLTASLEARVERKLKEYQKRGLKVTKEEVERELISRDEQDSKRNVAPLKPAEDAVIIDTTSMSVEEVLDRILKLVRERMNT

TmUMPK = target: T2, TmUMPK (Thermotoga maritima, UniProt Q9X1U0); assay: HPLC conversion, […] h; conditions: 1 mM substrate, 1.2 mM ATP, 2 mM MgCl2, 50 mM KCl, 5 mM DTT, Tris pH 7.6, 37 °C
T2 construct: gene pyrH; synthetic gene, full length, expressed in E. coli, 80 °C heat step and Ni-NTA; tag not described
T2 sequence (Q9X1U0 1-231): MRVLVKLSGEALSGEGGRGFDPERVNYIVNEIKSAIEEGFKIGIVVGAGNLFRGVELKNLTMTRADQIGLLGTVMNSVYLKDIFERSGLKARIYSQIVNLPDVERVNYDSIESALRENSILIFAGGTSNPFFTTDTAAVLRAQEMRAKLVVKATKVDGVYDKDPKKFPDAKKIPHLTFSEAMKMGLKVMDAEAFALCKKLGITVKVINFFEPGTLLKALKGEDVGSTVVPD

TmAMPK = target: T3, TmAMPK (Thermotoga maritima, UniProt Q9X1I8); assay: TLC or HPLC, […] h cascade; conditions: 1 mM NMP, 1.2 mM ATP, 5 mM acetyl phosphate with TmAcK (ATP regeneration), 10 mM MgCl2, pH 7.6, 37 °C
T3 construct: gene adk; synthetic gene, full length, expressed in E. coli, 80 °C heat step and Ni-NTA; tag not described
T3 sequence (Q9X1I8 1-220): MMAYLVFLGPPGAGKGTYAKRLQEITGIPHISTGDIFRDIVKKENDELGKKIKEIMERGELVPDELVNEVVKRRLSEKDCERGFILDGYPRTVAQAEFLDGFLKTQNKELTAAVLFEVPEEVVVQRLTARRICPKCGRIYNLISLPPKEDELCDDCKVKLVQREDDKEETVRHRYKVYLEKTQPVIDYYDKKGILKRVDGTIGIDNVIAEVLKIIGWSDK

TmPK = target: T4, TmPK (Thermotoga maritima, UniProt Q9WY51); assay: HPLC conversion, […] h; conditions: 1 mM substrate, 1.2 mM phosphoenolpyruvate, 2 mM MgCl2, 50 mM KCl, pH 7.6, 37 °C
T4 construct: gene pyk; synthetic gene, full length, expressed in E. coli, 80 °C heat step and Ni-NTA; tag not described
T4 sequence (Q9WY51 1-466): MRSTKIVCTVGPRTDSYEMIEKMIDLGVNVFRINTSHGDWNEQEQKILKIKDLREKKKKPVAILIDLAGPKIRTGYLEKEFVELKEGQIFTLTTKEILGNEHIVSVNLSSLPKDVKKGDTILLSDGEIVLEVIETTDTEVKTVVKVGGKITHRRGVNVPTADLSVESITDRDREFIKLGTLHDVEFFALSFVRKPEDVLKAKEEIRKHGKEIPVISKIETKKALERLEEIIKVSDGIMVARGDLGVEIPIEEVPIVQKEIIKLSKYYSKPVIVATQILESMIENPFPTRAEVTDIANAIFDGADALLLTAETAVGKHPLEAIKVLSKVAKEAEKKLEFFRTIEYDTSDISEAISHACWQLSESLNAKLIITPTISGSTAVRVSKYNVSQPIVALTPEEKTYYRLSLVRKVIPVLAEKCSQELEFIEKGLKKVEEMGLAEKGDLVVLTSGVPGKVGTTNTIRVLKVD

TmRK = target: T5, TmRK (Thermotoga maritima, UniProt Q9X055); assay: HPLC conversion, […] h; conditions: 1 mM substrate, 1.2 mM ATP, 2 mM MgCl2, 50 mM KCl, 5 mM DTT, Tris pH 7.6, 37 °C
T5 construct: gene rbsK; synthetic gene, full length, expressed in E. coli, 80 °C heat step and Ni-NTA; tag not described; PfkB family
T5 sequence (Q9X055 1-299): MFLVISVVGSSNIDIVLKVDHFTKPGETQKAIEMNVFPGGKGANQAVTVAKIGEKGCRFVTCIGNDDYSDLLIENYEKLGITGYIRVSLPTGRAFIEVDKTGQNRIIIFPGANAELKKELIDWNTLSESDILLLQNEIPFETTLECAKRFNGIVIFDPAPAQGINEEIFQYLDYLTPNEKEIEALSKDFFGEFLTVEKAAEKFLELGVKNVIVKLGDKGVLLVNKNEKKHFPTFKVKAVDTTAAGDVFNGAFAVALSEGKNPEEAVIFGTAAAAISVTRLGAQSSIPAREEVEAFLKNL

TmTK = target: T6, TmTK (Thermotoga maritima, UniProt Q9WYN2); assay: HPLC conversion, […] h; conditions: 1 mM substrate, 1.2 mM ATP, 2 mM MgCl2, 50 mM KCl, 5 mM DTT, Tris pH 7.6, 37 °C
T6 construct: gene tdk; synthetic gene, full length, expressed in E. coli, 80 °C heat step and Ni-NTA; tag not described
T6 sequence (Q9WYN2 whole entry): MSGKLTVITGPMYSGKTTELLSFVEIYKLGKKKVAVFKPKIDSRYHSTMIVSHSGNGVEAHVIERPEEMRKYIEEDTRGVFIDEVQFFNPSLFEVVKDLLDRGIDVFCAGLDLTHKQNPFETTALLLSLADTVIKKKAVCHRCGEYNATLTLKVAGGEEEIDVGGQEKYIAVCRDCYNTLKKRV

TmAcK = target: T7, TmAcK (Thermotoga maritima, UniProt Q9WYB1); assay: HPLC conversion, […] h; conditions: 1 mM substrate, 1.2 mM acetyl phosphate, 2 mM MgCl2, 50 mM KCl, pH 7.6, 37 °C
T7 construct: gene ackA; synthetic gene, full length, expressed in E. coli, 80 °C heat step and Ni-NTA; tag not described
T7 sequence (Q9WYB1 1-403): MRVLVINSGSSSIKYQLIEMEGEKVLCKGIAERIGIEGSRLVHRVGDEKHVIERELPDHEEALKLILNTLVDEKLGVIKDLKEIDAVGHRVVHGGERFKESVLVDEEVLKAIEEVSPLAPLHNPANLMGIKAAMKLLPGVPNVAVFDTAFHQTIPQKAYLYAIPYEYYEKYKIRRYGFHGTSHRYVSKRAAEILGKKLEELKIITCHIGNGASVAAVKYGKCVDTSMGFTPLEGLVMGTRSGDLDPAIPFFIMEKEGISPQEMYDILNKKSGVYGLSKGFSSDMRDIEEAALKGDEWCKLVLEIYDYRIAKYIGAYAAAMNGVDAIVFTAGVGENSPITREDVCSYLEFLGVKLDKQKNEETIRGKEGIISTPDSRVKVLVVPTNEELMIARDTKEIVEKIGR

TmGMPK = target: T8, TmGMPK (Thermotoga maritima, UniProt Q9X215); assay: TLC or HPLC, […] h cascade; conditions: 1 mM NMP, 1.2 mM ATP, 5 mM acetyl phosphate with TmAcK (ATP regeneration), 10 mM MgCl2, pH 7.6, 37 °C
T8 construct: gene gmk; synthetic gene, full length, expressed in E. coli, 80 °C heat step and Ni-NTA; tag not described
T8 sequence (Q9X215 1-207): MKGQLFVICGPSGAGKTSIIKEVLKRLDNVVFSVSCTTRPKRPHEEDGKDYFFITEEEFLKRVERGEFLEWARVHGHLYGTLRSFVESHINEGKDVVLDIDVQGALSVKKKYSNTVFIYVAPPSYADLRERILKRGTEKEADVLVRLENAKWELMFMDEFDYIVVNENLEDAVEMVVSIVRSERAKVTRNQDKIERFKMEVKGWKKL

## Nc1ccn([C@@H]2O[C@H](COP(=O)(O)O)[C@@H](O)[C@@H]2O)c(=O)n1 [cytarabine phosphate]
Tm(d)CMPK
  TLC or HPLC, 19 h cascade: Tm(d)CMPK converted the sugar-modified substrates araCMP, araGMP, and araUMP

## Nc1ccn([C@@H]2O[C@H](COP(=O)(O)O)[C@@H](O)[C@H]2O)c(=O)n1 [cytidine 5′-monophosphate]
TmUMPK
  HPLC conversion, 19 h: TmUMPK which accepted all natural riboNMPs

## Nc1nc(F)nc2c1ncn2[C@@H]1O[C@H](COP(=O)(O)O)[C@@H](O)[C@@H]1O [fludarabine phosphate]
TmAMPK
  TLC or HPLC, 19 h cascade: For TmAMPK, NTP formation was observed for all AMP analogs

## Nc1nc2c(ncn2[C@@H]2O[C@H](COP(=O)(O)OP(=O)(O)O)[C@@H](O)[C@H]2O)c(=O)[nH]1 [guanosine 5′-diphosphate]
TmPK
  HPLC conversion, 19 h: TmPK and TmAcK accepted all natural riboNDPs and deoxyriboNDPs

## Cc1cn([C@H]2C[C@H](O)[C@@H](CO)O2)c(=O)[nH]c1=O [thymidine]
TmRK
  HPLC conversion, 19 h: it phosphorylates the natural nucleosides thymidine and uridine
TmTK
  HPLC conversion, 19 h: TmTK accepted all deoxynucleosides and uridine

## O=c1ccn([C@@H]2O[C@H](COP(=O)(O)OP(=O)(O)O)[C@@H](O)[C@H]2O)c(=O)[nH]1 [uridine 5′-diphosphate]
TmAcK
  HPLC conversion, 19 h: TmPK and TmAcK accepted all natural riboNDPs and deoxyriboNDPs

## O=c1ccn([C@@H]2O[C@H](COP(=O)(O)O)[C@@H](O)[C@H]2O)c(=O)[nH]1 [uridine 5′-monophosphate]
TmUMPK
  HPLC conversion, 19 h: TmUMPK which accepted all natural riboNMPs

## O=c1ccn([C@@H]2O[C@H](CO)[C@@H](O)[C@H]2O)c(=O)[nH]1 [uridine]
TmRK
  HPLC conversion, 19 h: it phosphorylates the natural nucleosides thymidine and uridine
TmTK
  HPLC conversion, 19 h: TmTK accepted all deoxynucleosides and uridine

## Nc1ncnc2c1ncn2[C@@H]1O[C@H](COP(=O)(O)O)[C@@H](O)[C@@H]1O [vidarabine phosphate]
TmGMPK
  TLC or HPLC, 19 h cascade: TmGMPK phosphorylated the sugar-modified NMPs araGMP, vidarabine phosphate, and araUMP
